Measured values taken from publication PMC11284790, “Targeting Myeloperoxidase Ameliorates Gouty Arthritis: A Virtual Screening Success Story” (Journal of Medicinal Chemistry, 2024).

Key:
Human leukocyte MPO [1] = target: T1, Human leukocyte MPO (Homo sapiens, UniProt P05164); assay: MPO peroxidatic activity assay (AmplexRed oxidation); assay type: biochemical; parameters: Human leukocyte MPO (EC 1.7.1.11) was purchased from Planta Natural Products; purchased Planta Natural Products (Vienna, Austria); host or cells: human leukocytes
Description: MPO peroxidase activity was kinetically monitored using the artificial peroxidase substrate AmplexRed, which is oxidized to resorufin and can be detected by fluorescence.[34] Reactions were carried out in phosphate buffer (50 mM, pH 7.4), MPO (100 pM), cetyltrimethylammonium chloride (0.03%), diethylenetriaminepentaacetic acid (100 μM), AmplexRed (30 μM), and compounds (20 μM in 0.3% DMSO). The reaction was started by adding 2 μM hydrogen peroxide. The reaction product was assessed by fluorescence at λex = 530 and λem = 580 nm. The initial velocity was calculated by the slope of the linear regression in the first minutes of reaction. Inhibition is represented as a percentage of the control (vehicle).

Human leukocyte MPO [2] = target: T1, Human leukocyte MPO; assay: MPO chlorinating activity assay (taurine chloramine/TMB); assay type: biochemical; parameters: Human leukocyte MPO (EC 1.7.1.11) was purchased from Planta Natural Products; purchased Planta Natural Products (Vienna, Austria); host or cells: human leukocytes; conditions: for chlorinating/peroxidatic activity inhibition ratio: ratio of % inhibition at 20 μM, ~1 indicates true enzyme inhibitor
Description: Chlorinating activity was carried out in phosphate buffer (20 mM, pH 7.4). Compounds (20 μM) were dissolved in 0.03% DMSO, MPO (10 nM), diethylenetriaminepentaacetic acid (100 μM), cetyltrimethylammonium chloride (0.03%), NaCl (140 mM), and taurine (5 mM).[31] This mixture was incubated at 37 °C for 15 min before adding 40 μM hydrogen peroxide. The reaction ran for 8 min and was then stopped by catalase (20 μg/mL). Oxidation of TMB (2 mM) (3,3,5,5-tetramethylbenzidine) by taurine chloroamine catalyzed by iodide (100 μM) was quantified at 650 nm.[33] Results were expressed as a percentage of the control (vehicle). IC50 was calculated by nonlinear regression using the Hill equation present in GraphPad Prism 5 software.

[3] = Taurine chloroamine scavenger assay; conditions: 15 min at 37 °C, TMB readout
Description: Taurine chloramine was prepared by mixing hypochlorous acid (2.81 mM) with taurine (5 mM), cetyltrimethylammonium chloride (0.03%), NaCl (140 mM), and diethylenetriaminepentaacetic acid (100 μM) in phosphate buffer (20 mM, pH 7.4). The system was kept at 37 °C for 5 min for complete chloramine taurine formation. The compounds were added to this mixture and incubated for 15 min at 37 °C. Taurine chloramine was quantified by the oxidation of TMB (2 mM) catalyzed by iodide (100 μM).[33]

[4] = 20 μM compound, 100 pM MPO, 30 μM AmplexRed, 2 μM H2O2, pH 7.4, read-out: % Inhibition (at 20 μM) Peroxidatic
[5] = supplementary csv copy of Table 1, read-out: % Inhibition (Peroxidatic)
[6] = 20 μM compound, 10 nM MPO, 140 mM NaCl, 5 mM taurine, 40 μM H2O2, pH 7.4, read-out: % Inhibition (at 20 μM) Chlorinating
[7] = supplementary csv copy of Table 1, read-out: % Inhibition (Chlorinating)
[8] = 20 μM compound, 10 nM MPO, 140 mM NaCl, 5 mM taurine, 40 μM H2O2, pH 7.4
[9] = supplementary csv copy of Table 1
[10] = 20 μM compound, 100 pM MPO, 30 μM AmplexRed, 2 μM H2O2, pH 7.4

T1 sequence (P05164 279-745 limits assumed): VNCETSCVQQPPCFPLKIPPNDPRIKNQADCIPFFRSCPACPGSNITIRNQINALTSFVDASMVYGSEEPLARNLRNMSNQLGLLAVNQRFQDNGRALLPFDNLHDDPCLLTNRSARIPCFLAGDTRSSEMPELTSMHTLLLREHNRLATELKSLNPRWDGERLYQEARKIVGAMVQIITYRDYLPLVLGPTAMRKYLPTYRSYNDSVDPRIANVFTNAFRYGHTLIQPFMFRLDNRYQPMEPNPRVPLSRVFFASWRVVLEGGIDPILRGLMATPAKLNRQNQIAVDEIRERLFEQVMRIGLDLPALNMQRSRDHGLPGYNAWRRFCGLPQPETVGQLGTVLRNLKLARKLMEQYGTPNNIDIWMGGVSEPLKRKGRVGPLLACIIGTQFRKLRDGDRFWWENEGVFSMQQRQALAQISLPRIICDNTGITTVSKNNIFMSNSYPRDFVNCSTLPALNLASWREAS
T1 sequence (P05164 165-278 limits assumed): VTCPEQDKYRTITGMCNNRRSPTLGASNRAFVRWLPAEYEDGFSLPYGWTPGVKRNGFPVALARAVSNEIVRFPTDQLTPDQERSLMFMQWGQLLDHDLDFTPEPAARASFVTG

| Compound | inhibition at 20 µM (Human leukocyte MPO [1]; [4]) [%] | inhibition at 20 µM (Human leukocyte MPO [1]; [5]) [%] | inhibition at 20 µM (Human leukocyte MPO [2]; [6]) [%] | inhibition at 20 µM (Human leukocyte MPO [2]; [7]) [%] | chlorinating/peroxidatic activity inhibition ratio (Human leukocyte MPO [2]) | % Inhibition (at 20 μM) Chlorinating (Human leukocyte MPO [2]; [8]) | % Inhibition (Chlorinating) (Human leukocyte MPO [2]; [9]) | % Inhibition (Peroxidatic) (Human leukocyte MPO [1]; [9]) | IC50 (Human leukocyte MPO [2]; 10 nM MPO, 140 mM NaCl, pH 7.4) [µM] | % Inhibition (at 20 μM) Peroxidatic (Human leukocyte MPO [1]; [10]) | scavenger activity toward taurine chloramine [3] |
| --- | --- | --- | --- | --- | --- | --- | --- | --- | --- | --- | --- |
| CC1=Nc2ccc(Cl)cc2-c2[nH]c3ccccc3c2N1 [RL1] | 81 ± 15.1 | 81 ± 15.1 | 50.2 ± 4 | 50.2 ± 4 | – | – | – | – | – | – | – |
| CC1CCc2sc3c(c2C1)c1ncnn1c1nnc(S)n31 (stereo not shown) [RL9] | 42.1 ± 7.9 | 42.1 ± 7.9 | 92 ± 3.2 | 92 ± 3.2 | high | – | – | – | – | – | – |
| N#CC1=C(N)Oc2c(c(=O)sc3ccccc23)C1c1ccc(F)cc1 (stereo not shown) [RL20] | 34 ± 4.3 | 34 ± 4.3 | – | – | – | INACTIVE | INACTIVE | – | – | inhibited exclusively the peroxidatic assay | – |
| CCc1n[nH]c2c1C(c1ccc(O)c(OC)c1)C(C#N)=C(N)O2 (stereo not shown) [RL23] | 25.1 ± 3.2 | 25.1 ± 3.2 | 57.8 ± 13.9 | 57.8 ± 13.9 | – | – | – | – | – | – | – |
| O=c1c2cnc3cc(C(F)(F)F)ccc3c2sc2nncn12 [RL25] | – | – | – | – | – | INACTIVE | INACTIVE | INACTIVE | – | INACTIVE | – |
| CC1CCCc2sc3nc(S)n(N)c(=O)c3c21 (stereo not shown) [RL27] | 29.5 ± 2.9 | 29.5 ± 2.9 | 18.6 ± 1.6 | 18.6 ± 1.6 | – | – | – | – | – | – | – |

Second part, led by results:

| inhibition at 20 µM (Human leukocyte MPO [1]; [4]) [%] | inhibition at 20 µM (Human leukocyte MPO [1]; [5]) [%] | inhibition at 20 µM (Human leukocyte MPO [2]; [6]) [%] | inhibition at 20 µM (Human leukocyte MPO [2]; [7]) [%] | chlorinating/peroxidatic activity inhibition ratio (Human leukocyte MPO [2]) | % Inhibition (at 20 μM) Chlorinating (Human leukocyte MPO [2]; [8]) | % Inhibition (Chlorinating) (Human leukocyte MPO [2]; [9]) | % Inhibition (Peroxidatic) (Human leukocyte MPO [1]; [9]) | IC50 (Human leukocyte MPO [2]; 10 nM MPO, 140 mM NaCl, pH 7.4) [µM] | Compound | % Inhibition (at 20 μM) Peroxidatic (Human leukocyte MPO [1]; [10]) | scavenger activity toward taurine chloramine [3] |
| --- | --- | --- | --- | --- | --- | --- | --- | --- | --- | --- | --- |
| – | – | – | – | – | INACTIVE | INACTIVE | – | – | COc1cc(/C=N/NC(=O)c2ccoc2C)ccc1OCCN1CCCCC1 [RL15] | – | – |
| 67.1 ± 8.1 | 67.1 ± 8.1 | – | – | – | INACTIVE | INACTIVE | – | – | CCOC(=O)C(Cc1ccc(O)cc1)NC1=CC(=O)C(=O)c2ccccc21 (stereo not shown) [RL16] | inhibited exclusively the peroxidatic assay | – |
| 24 ± 4.1 | 24 ± 4.1 | 63 ± 6.2 | 63 ± 6.2 | high | – | – | – | – | O=C1ON=C(c2ccccc2)/C1=C\c1cccc(O)c1 [RL17] | – | – |
| 59.1 ± 2.9 | 59.1 ± 2.9 | 40.1 ± 5.5 | 40.1 ± 5.5 | – | – | – | – | – | CCOC(=O)C1=C(N)Oc2cc(O)ccc2C1c1ccc(F)cc1F (stereo not shown) [RL24] | – | – |
| 78.7 ± 4.2 | 78.7 ± 4.2 | 81 ± 5.8 | 81 ± 5.8 | – | – | – | – | 12.6 | CCCOc1ccc(C2C(C#N)=C(N)SC(N)=C2C#N)cc1OC [RL26] | – | decreased both taurine chloroamine |
| – | – | – | – | – | INACTIVE | INACTIVE | INACTIVE | – | CCCNc1ncnc2cc(-c3ccc(OC)cc3)sc12 [RL28] | INACTIVE | – |
